pEC50, pIC50: −log10 of the molar value.
What was measured:
[1] = test system: Japanese medaka (Oryzias latipes); assay: Fish Short‐Term Reproduction Assay; type: in vivo; conditions: for GSI Female / GSI Male / HSI Female / HSI Male / Length Female / Length Male / Weight Female / Weight Male: completion of exposure
medaka Esr1 (mEsr1) [2] = biological target: T1, medaka Esr1 (mEsr1) (Oryzias latipes, UniProt P50241); assay: Medaka Esr1 reporter gene assay, antagonist assay; type: cell-based, Japanese medaka (Oryzias latipes); conditions: E2 spiked at 1.0 nM (B); MAC = 1.0 × 10^−5 M
T1 sequence (P50241 1-620): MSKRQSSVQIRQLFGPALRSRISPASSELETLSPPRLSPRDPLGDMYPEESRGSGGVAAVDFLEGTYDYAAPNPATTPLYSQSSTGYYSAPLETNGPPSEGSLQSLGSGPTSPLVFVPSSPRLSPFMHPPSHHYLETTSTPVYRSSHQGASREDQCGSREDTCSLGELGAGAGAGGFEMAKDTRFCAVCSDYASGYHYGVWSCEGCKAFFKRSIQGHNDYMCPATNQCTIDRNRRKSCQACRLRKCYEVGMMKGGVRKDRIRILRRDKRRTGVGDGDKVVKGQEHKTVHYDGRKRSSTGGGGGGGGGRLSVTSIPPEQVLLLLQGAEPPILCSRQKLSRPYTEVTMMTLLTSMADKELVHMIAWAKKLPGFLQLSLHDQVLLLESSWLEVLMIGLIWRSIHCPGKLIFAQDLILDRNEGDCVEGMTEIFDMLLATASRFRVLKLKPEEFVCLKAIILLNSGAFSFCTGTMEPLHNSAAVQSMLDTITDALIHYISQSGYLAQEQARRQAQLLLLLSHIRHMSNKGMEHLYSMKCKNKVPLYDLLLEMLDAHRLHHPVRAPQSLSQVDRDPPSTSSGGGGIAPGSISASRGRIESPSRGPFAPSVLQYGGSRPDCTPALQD

medaka ARβ (mArβ) [3] = biological target: T2, medaka ARβ (mArβ) (Oryzias latipes, UniProt D1MV73); assay: Medaka ARβ reporter gene assay, agonist assay; type: cell-based, Japanese medaka (Oryzias latipes)
T2 sequence (D1MV73 1-744): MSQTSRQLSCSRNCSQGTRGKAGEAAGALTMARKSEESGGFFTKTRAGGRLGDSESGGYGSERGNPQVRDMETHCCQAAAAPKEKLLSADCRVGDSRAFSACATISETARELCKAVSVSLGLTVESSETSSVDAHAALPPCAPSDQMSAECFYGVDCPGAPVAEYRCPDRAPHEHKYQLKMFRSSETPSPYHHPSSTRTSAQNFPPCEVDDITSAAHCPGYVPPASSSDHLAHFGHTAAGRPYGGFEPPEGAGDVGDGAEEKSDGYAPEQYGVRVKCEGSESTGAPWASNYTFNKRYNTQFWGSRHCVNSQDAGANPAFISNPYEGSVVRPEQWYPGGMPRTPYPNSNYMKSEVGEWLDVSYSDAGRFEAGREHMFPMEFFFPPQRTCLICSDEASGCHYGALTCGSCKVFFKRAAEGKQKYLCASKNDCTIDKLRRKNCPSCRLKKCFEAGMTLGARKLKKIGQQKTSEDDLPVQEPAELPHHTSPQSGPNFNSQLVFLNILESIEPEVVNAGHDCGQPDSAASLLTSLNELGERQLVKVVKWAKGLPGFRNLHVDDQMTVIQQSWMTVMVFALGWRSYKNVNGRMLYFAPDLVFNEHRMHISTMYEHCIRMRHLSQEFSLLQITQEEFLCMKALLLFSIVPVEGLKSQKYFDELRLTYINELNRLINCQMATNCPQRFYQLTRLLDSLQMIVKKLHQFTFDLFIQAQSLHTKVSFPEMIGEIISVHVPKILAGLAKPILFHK

medaka Esr1 (mEsr1) [4] = biological target: T1, medaka Esr1 (mEsr1); assay: cell-based; parameters: species or system Japanese medaka (Oryzias latipes)
medaka ARβ (mArβ) [5] = biological target: T2, medaka ARβ (mArβ); assay: Medaka ARβ reporter gene assay, antagonist assay; type: cell-based, Japanese medaka (Oryzias latipes)
[6] = 100 μg/L measured, 21 d, sig. ↓ vs control
[7] = measured concentration 5.69 μg/L
[8] = measured concentration 28.8 μg/L
[9] = measured concentration 100 μg/L

CCC(CC)Nc1c([N+](=O)[O-])cc(C)c(C)c1[N+](=O)[O-] [PDM, Pendimethalin]
Fertility rate ([1]; 5.69 μg/L measured, 21 d): 93 ± 0.9%
Hepatic VTG, female ([1]; 5.69 μg/L measured, 21 d): 649 ± 200 ng/mg‐liver
Hepatic VTG, male ([1]; 5.69 μg/L measured, 21 d): 0.5 ± 0.0 ng/mg‐liver
Mortality ([1]; 5.69 μg/L measured, 21 d): 0.0%
Mortality, number of dead fish ([1]; 5.69 μg/L measured, 21 d): 0
Number of fertilized eggs (per female per day) ([1]; 5.69 μg/L measured, 21 d): 19 ± 3.1
Number of total eggs (per female per day) ([1]; 5.69 μg/L measured, 21 d): 21 ± 3.4
SSC female (joint plates with papillary processes) ([1]; 5.69 μg/L measured, 21 d): 0 ± 0
SSC male (joint plates with papillary processes) ([1]; 5.69 μg/L measured, 21 d): 85 ± 11
Fertility rate ([1]; 28.8 μg/L measured, 21 d): 88 ± 4.9%
Hepatic VTG, female ([1]; 28.8 μg/L measured, 21 d): 933 ± 692 ng/mg‐liver
Hepatic VTG, male ([1]; 28.8 μg/L measured, 21 d): 5.7 ± 6.6 ng/mg‐liver
Mortality ([1]; 28.8 μg/L measured, 21 d): 4.2%
Mortality, number of dead fish ([1]; 28.8 μg/L measured, 21 d): 1
Number of fertilized eggs (per female per day) ([1]; 28.8 μg/L measured, 21 d): 18 ± 3.6
Number of total eggs (per female per day) ([1]; 28.8 μg/L measured, 21 d): 20 ± 3.9
SSC female (joint plates with papillary processes) ([1]; 28.8 μg/L measured, 21 d): 0 ± 0
SSC male (joint plates with papillary processes) ([1]; 28.8 μg/L measured, 21 d): 80 ± 8.2
Hepatic VTG, female ([1]; 100 μg/L measured, 21 d): 813 ± 157 ng/mg‐liver
Mortality ([1]; 100 μg/L measured, 21 d): 8.3%
Mortality, number of dead fish ([1]; 100 μg/L measured, 21 d): 2
Number of total eggs (per female per day) ([1]; 100 μg/L measured, 21 d): 19 ± 2.1
SSC female (joint plates with papillary processes) ([1]; 100 μg/L measured, 21 d): 0 ± 0
SSC male (joint plates with papillary processes) ([1]; 100 μg/L measured, 21 d): 80 ± 13
Hepatic VTG, male ([1]; 100 μg/L measured, 21 d, sig. ↑ vs control): 774 ± 290 ng/mg‐liver
Fertility rate [1, 6]: 62 ± 11%
Number of fertilized eggs (per female per day) [1, 6]: 12 ± 2.3
LOEC, elevated hepatic VTG in males ([1]; 21 d): 100 µg/L
LOECREPRO ([1]; LOEC on reproduction (fecundity and/or fertility)): 100 µg/L
minimal effective concentration ([1]; Oryzias latipes, 504 h, read-out: LOECmVTG): 0.1 µg/mL
Fertility rate (in words) ([1]; at concentrations that did not affect number of total eggs): significant decrease
LOECREPRO (reduction in fecundity or fertility) ([1]; concentrations without overt toxicity): 100 µg/L
LOECTOX ([1]; lowest observed effect concentration on mortality): ND (>100) μg/L
GSI Female [1, 7]: 10.7 ± 0.8%
GSI Male [1, 7]: 0.64 ± 0.11%
HSI Female [1, 7]: 4.5 ± 0.70%
HSI Male [1, 7]: 2.7 ± 0.16%
Length Female [1, 7]: 32.4 ± 0.7 mm
Length Male [1, 7]: 31.9 ± 0.7 mm
Weight Female [1, 7]: 427 ± 25 mg
Weight Male [1, 7]: 366 ± 25 mg
GSI Female [1, 8]: 11.3 ± 0.8%
GSI Male [1, 8]: 0.55 ± 0.11%
HSI Male [1, 8]: 2.7 ± 0.28%
Length Female [1, 8]: 33.1 ± 0.9 mm
Length Male [1, 8]: 32.2 ± 0.2 mm
Weight Female [1, 8]: 455 ± 46 mg
Weight Male [1, 8]: 393 ± 20 mg
GSI Female [1, 9]: 9.7 ± 0.3%
GSI Male [1, 9]: 0.60 ± 0.20%
HSI Female [1, 9]: 4.4 ± 1.04%
HSI Male [1, 9]: 2.9 ± 0.45%
Length Female [1, 9]: 31.4 ± 0.8 mm
Length Male [1, 9]: 31.9 ± 0.7 mm
Weight Female [1, 9]: 423 ± 30 mg
Weight Male [1, 9]: 389 ± 28 mg
Antagonistic activity (medaka Esr1 (mEsr1) [2]): NE (MAC = 1.0 × 10^−5 M)^(B)
Agonistic activity (medaka ARβ (mArβ) [3]; MAC = 1.0 × 10^−5 M): NE (MAC = 1.0 × 10^−5 M)
pEC50 (medaka Esr1 (mEsr1) [4]): 5.48
In vitro positive: Esr (medaka Esr1 (mEsr1) [4]; mode of action in which EC50 or PC10 was obtained in RGA): Esr
pIC50 (medaka ARβ (mArβ) [5]; Antagonistic activity IC50, 11‐KT spiked at 50 nM (D)): 5.51
In vitro positive: aAr (medaka ARβ (mArβ) [5]; mode of action in which IC50 or IC30 was obtained in RGA): aAr
Antagonistic activity on mArβ (in words) (medaka ARβ (mArβ) [5]; transcriptional activity on mArβ by 11KT): inhibitory potency

C[C@]12CC(=O)[C@H]3[C@@H](CCC4=CC(=O)CC[C@@]43C)[C@@H]1CC[C@@H]2O [Chemical 11KT, 11‐ketotestosterone, reference compound]
pEC50 (medaka ARβ (mArβ) [3]; read-out: Agonistic activity EC50, geometric mean, positive control, n = 5): 8.24

Source: article PMC9297976 (Journal of Applied Toxicology, 2021)
